Laboratory results as given in US5086054A, “Novel arylcycloalkanepolyalkylamines” (SRI International, priority 1990, dated 1992).
Entries after “also recorded” stand apart in the source; their conditions may differ. Structures can show the parent of a compound that is named as a salt. Where two headings read alike, the source gives them in different places.

Tests used:
[1] = clinical trials; cited from earlier work
σ receptors = details: literature; cited from earlier work
5-HT2 = 5-HT2 (Cavia porcellus, UniProt A0A286Y537); assay: 5-HT2 receptor binding; design: species or system guinea-pig; details: for IC50: Table 4, IC50 and nM only stated in text, read-out: 5-HT2
Sequence of 5-HT2 (A0A286Y537 1-470): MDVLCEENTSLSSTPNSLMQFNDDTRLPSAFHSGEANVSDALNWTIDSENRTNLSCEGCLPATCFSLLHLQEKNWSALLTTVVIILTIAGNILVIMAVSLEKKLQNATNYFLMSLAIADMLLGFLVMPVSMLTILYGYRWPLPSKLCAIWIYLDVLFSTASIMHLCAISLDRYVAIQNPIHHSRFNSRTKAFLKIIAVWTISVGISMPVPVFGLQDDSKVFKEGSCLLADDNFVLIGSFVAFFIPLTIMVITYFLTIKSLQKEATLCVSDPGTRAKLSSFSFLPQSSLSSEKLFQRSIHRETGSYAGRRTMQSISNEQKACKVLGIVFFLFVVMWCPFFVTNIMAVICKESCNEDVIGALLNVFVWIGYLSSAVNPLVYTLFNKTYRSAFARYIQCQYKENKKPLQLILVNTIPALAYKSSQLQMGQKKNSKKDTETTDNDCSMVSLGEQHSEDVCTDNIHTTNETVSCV
From the text: (§1) This example illustrates the testing of compounds of this invention in dopamine D2, 5-HT2, muscarinic acetylcholine, α1 -adrenoceptor and β-adrenoceptor receptor assays. The receptor assay methods are described in Eur. J. Pharmacol., 155:345 (1988) except that in the β-adrenoceptor assay, [^125 I]-pindolol was used instead of [^3 H] dihydroalprenolol.
(§2) In this study, guinea-pig brains were used for binding studies. Homogenization and centrifugation procedures for preparation of brain membranes for each receptor assay were the same as described in Example 4 for the σ and PCP receptors. However, brain regions, tissue contents, and buffers may differ depending on the assay. Conditions of binding assays for various receptors were as follows:
(§3) Filtration and washing conditions were the same as described above for the σ receptor assay. Nonspecific binding for each receptor was defined by the inclusion of 1 μM haloperidol for dopamine D2, 1 μM haloperidol for 5-HT2, 10 μM scopolamine for muscarinic acetylcholine, 10 μM prazosin for α1 -adrenoceptor, and 0.2 μM 1-propranolol for β-adrenoceptor. Retained radioactivity was measured by liquid scintillation spectrometry except for ^125 I-pindolol which was measured by the LKB gamma counter.
(§4) Programs in Biomed. 17:107 (1983)].

α1 -ADRENOCEPTOR = assay: α1-adrenoceptor binding ([3H]-prazosin); design: species or system guinea-pig; details: Table 4; IC50 and nM only stated in text; read-out: α1 -ADRENOCEPTOR
From the text: as §1, §2
For α1 -adrenoceptor assay, [^3 H]-prazosin (0.4 nM) was incubated in a 1 ml assay (50 mM Tris-HCl, pH 7.4) for 1 hour at 23° C. with membranes from 1 mg of whole brain minus cerebellum.
as §3, §4

PCP RECEPTOR = assay: PCP receptor binding assay ([3H]-TCP displacement, brain membranes); design: species or system guinea-pig (male Hartley); details: for potency at PCP receptors (in words): hydrochloride
Procedure: (§5) This example illustrates testing of compounds in receptor binding assays.
(§6) Frozen brains from male Hartley guinea-pigs were obtained from Pel-Freeze (Rogers, Arkansas).
(§7) The brains plus cerebella were homogenized in 10 volumes (v/w) of 0.1M, pH 7.4, ice-cold Tris-HCl buffer with a Brinkmann polytron at setting 4 for 20 seconds. The homogenates were centrifuged at 20,000×g for 20 minutes at 4° C. The pellets were suspended in 10 volumes of ice-cold water and, after sitting on ice for 10 minutes, were centrifuged 30 minutes at 20,000×g at 4° C. The resulting pellets were resuspended in the above Tris buffer in ratio 1:100 (w/v) for σ receptor assays or in 5 mM Tris-HCl having pH 7.4, for PCP receptor assays. The final suspension was homogenized with a dounce glass-glass tissue grinder Wheaton "200", at small clearance (B), with three strokes before use. Two milliter aliquots of the brain membrane preparation, containing 1.7 mg of protein, were incubated in quadruplicate for one hour at 23° C. with competing mixture of ligand and radioligand. For σ receptors, [^3 H]-d-SKF-10,047, 2 nM was used. For PCP receptors, [^3 H] TCP [^3 H]-1-[1-(2-thienyl)cyclohexyl]piperidine), 1 nM was used. The nonspecific bindings were defined by 0.1 mM d-SKF-10,047 and 0.1 mM phencyclidine respectively for σ and PCP receptors. After incubation, free ligand was separated from bound ligand by rapid filtration through Whatman GF/C filters. The filters had been soaked before use in isoamyl alcohol-saturated water to prevent nonspecific [^3 H]-d-SKF-10,047 binding to the filter. In the PCP receptor assay, the filter was soaked in 0.5% polyethylenimine to reduce the filter binding of [^3 H]-TCP. After filtration, the trapped tissue was washed three times with 4 ml aliquots of 0.1 M ice-cold Tris buffer at pH 7.4 for σ receptors and 5 mM, ice-cold Tris buffer pH 7.4 for PCP receptors. The filters were transferred to 5 ml of liquid scintillation fluid and the retained radioactivity was measured by liquid scintillation spectrometry.
as §4

SIGMA RECEPTOR = target: T1, SIGMA RECEPTOR (Cavia porcellus, UniProt Q60492); assay: Sigma receptor binding assay ([3H]-d-SKF-10,047 displacement, brain membranes); design: species or system guinea-pig (male Hartley); details: for SIGMA RECEPTOR SLOPE: slope of dose response curve; for potency at σ receptors (in words): hydrochloride
T1 construct: Two milliter aliquots of the brain membrane preparation, containing 1.7 mg of protein; tissue Pel-Freeze (Rogers, Arkansas); host or cells: guinea-pig brains plus cerebella, membranes
T1 sequence (Q60492 whole entry): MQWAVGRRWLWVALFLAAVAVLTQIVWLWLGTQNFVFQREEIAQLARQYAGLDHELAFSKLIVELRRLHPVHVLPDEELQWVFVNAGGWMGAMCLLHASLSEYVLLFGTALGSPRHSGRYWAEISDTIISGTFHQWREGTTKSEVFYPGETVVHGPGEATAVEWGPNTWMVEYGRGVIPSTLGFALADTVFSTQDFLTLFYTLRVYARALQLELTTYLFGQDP
Procedure: as §5, §6, §7

MUSCARINIC ACETYLCHOLINE = assay type: binding, guinea-pig
From the text: as §1, §2
For muscarinic acetylcholine assay, […]) [^3 H]-quinuclidinyl benzylate ([^3 H]-QNB) was incubated in a 2 ml assay (50 mM Tris-HCl, pH 7.4) for 2 hours at 23° C. with membranes from 2 mg of whole brain minus cerebellum.
as §3, §4

β-ADRENOCEPTOR = assay: β-adrenoceptor binding ([125I]-pindolol); design: species or system guinea-pig; details: Table 4; IC50 and nM only stated in text; read-out: β-ADRENOCEPTOR
From the text: as §1, §2
For β-adrenoceptor, [^125 I]-pindolol (0.05 nM) was incubated in a 1 ml assay (50 mM Tris-HCl, pH 7.4) for 1 hr at 23° C. with membranes from 1 mg of whole brain minus cerebellum.
as §3, §4

DOPAMINE D2 = target: T2, DOPAMINE D2 (Cavia porcellus, UniProt H0VE83); assay: Dopamine D2 receptor binding ([3H]-spiroperidol); design: species or system guinea-pig
T2 construct: printed as cerebral cortical tissue, [3H]spiroperidol, haloperidol blank
T2 sequence (H0VE83 entry or part of it): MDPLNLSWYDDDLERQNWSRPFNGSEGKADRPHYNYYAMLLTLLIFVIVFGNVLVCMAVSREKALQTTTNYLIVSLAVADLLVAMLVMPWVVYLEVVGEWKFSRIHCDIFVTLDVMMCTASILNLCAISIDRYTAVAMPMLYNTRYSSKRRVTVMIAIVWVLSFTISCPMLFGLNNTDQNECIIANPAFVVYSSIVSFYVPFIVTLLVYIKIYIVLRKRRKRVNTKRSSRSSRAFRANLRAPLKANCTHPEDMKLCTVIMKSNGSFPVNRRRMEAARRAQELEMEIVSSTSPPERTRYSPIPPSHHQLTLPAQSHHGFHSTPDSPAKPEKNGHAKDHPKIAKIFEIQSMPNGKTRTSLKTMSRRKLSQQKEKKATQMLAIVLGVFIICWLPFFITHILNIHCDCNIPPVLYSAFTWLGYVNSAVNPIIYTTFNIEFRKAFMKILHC
From the text: as §1, §2
For dopamine D2 assay, 3 H-spiroperidol (0.15 nM) was incubated in a 2 ml assay (50 mM Tris-HCl, pH 7.4) for 2 hours at 23° C. with membranes from 12 mg of cerebral cortical tissue.
as §3, §4

dopamine D-2 receptor = details: literature; cited from earlier work
[2] = Table 1, mean ± error (n), read-out: PCP RECEPTOR IC50
[3] = Table 4, IC50 and nM only stated in text, read-out: PCP
[4] = Table 4, IC50 and nM only stated in text, read-out: SIGMA
[5] = Table 4, IC50 and nM only stated in text, read-out: MUSCARINIC ACETYLCHOLINE
[6] = read-out: potency (IC50) at muscarinic acetylcholine receptor

| Structure (SMILES) | affinity / binding at σ receptors (in words) (σ receptors) | potency at 5-HT2 receptors (in words) (5-HT2) | IC50 (5-HT2) [nM] | IC50 (α1 -ADRENOCEPTOR) [nM] | IC50 (PCP RECEPTOR; [2]) [nM] | IC50 (PCP RECEPTOR; [3]) [nM] | potency at PCP receptors (in words) (PCP RECEPTOR) | SIGMA RECEPTOR SLOPE (SIGMA RECEPTOR; Table 1) | IC50 (SIGMA RECEPTOR; [4]) [nM] | potency at σ receptors (in words) (SIGMA RECEPTOR) | IC50 (SIGMA RECEPTOR; read-out: IC50 at σ receptors) [nM] | potency at muscarinic acetylcholine receptors (in words) (MUSCARINIC ACETYLCHOLINE) | IC50 (MUSCARINIC ACETYLCHOLINE; [5]) [nM] | IC50 (MUSCARINIC ACETYLCHOLINE; [6]) [nM] | IC50 (β-ADRENOCEPTOR) [nM] | potency at dopamine D-2 receptors (in words) (DOPAMINE D2) | also measured |
| --- | --- | --- | --- | --- | --- | --- | --- | --- | --- | --- | --- | --- | --- | --- | --- | --- | --- |
| CCN1CCC[C@H]1CNC(=O)c1c(OC)ccc(Br)c1OC [remoxipride] | potent and selective σ receptor ligands | – | – | – | – | – | – | – | – | – | – | – | – | – | – | – | clinical antipsychotic effects [1]: display clinical antipsychotic effects |
| CN(C)CCOC(=O)C1(c2ccccc2)CCCCC1.Cl [Compound 19, 2-(Dimethylamino)ethyl 1-phenylcyclohexane-1-carboxylate hydrochloride] | – | moderate potencies at dopamine D-2 and 5-HT2 receptors | 1410 | 29000 | 21700 | 21700 | inactive in the PCP assay; also recorded: very weak or inactive in the PCP assay; also recorded: negligible; also recorded: low potency at PCP receptors | 0.54 ± 0.02 | 9.2 ± 0.8 | σ receptor potency increased; also recorded: very potent in the σ assay; also recorded: very high | < 100 | quite potent at muscarinic acetylcholine receptors | 750 ± 36 | 750 | 85700 | moderate potencies at dopamine D-2 and 5-HT2 receptors | – |
| CCN(CC)CCOC(=O)C1(c2ccccc2)CCCCC1.Cl [Compound 15, 2-(Diethylamino)ethyl 1-phenylcyclohexane-1-carboxylate hydrochloride] | – | moderate potencies at dopamine D-2 and 5-HT2 receptors | 2180 | 30100 | 40900 | 40900 | inactive in the PCP assay; also recorded: very weak or inactive in the PCP assay; also recorded: negligible; also recorded: low potency at PCP receptors | 0.66 ± 0.16 | 30 ± 5 | σ receptor potency increased; also recorded: very potent in the σ assay; also recorded: very high | < 100 | quite potent at muscarinic acetylcholine receptors | 189 ± 35 | 189 | 81900 | moderate potencies at dopamine D-2 and 5-HT2 receptors | – |
| O=C(CCCN1CCC(O)(c2ccc(Cl)cc2)CC1)c1ccc(F)cc1 [haloperidol, 4-[4-(p-chlorophenyl)-4-hydroxypiperidino]-4'-fluorobutyrophenone] | high affinity for the σ site; also recorded: bind to σ receptors | – | – | – | – | – | – | – | – | – | – | – | – | – | – | – | dopamine D-2 receptor antagonism (in words) (dopamine D-2 receptor): potent dopamine D-2 receptor antagonist |
| O=C(OCCN1CCCCC1)C1(c2ccccc2)CCCCC1 [Compound 3, 2-(1-Piperidino)ethyl 1-phenylcyclohexane-1-carboxylate hydrochloride] | – | moderate potencies at dopamine D-2 and 5-HT2 receptors | 3660 | 24100 | 34900 | 34900 | reduced the potency in the PCP receptor assay; also recorded: inactive in the PCP assay; also recorded: very weak or inactive in the PCP assay; also recorded: negligible; also recorded: low potency at PCP receptors | 0.45 ± 0.04 | 26 ± 7 | increased the potency of the compound in the σ receptor assay; also recorded: very potent in the σ assay; also recorded: very high | < 100 | quite potent at muscarinic acetylcholine receptors | 46 ± 7 | 46 | 80400 | moderate potencies at dopamine D-2 and 5-HT2 receptors | decreased potency for PCP receptors (PCP RECEPTOR; relative to PCP (1)): about 700 times; IC50 (SIGMA RECEPTOR; Table 1, mean ± error (n), read-out: SIGMA RECEPTOR IC50): 24 nM; increased potency for σ receptors (SIGMA RECEPTOR; relative to PCP (1)): more than 300 times |
